Source: patent publication EP4768484A1, “HETEROCYCLIC FUSED RING COMPOUND, AND COMPOSITION AND USE THEREOF” (Shenzhen TargetRx, Inc., priority 2023, dated 2025)

Assays:
Type in all cases: cell-based
[1] = system: K562 cells; assay: Cell growth inhibitory activity assay (CellTiter-Glo), K562 cells; details: Homo sapiens, 72 h, CTG cell viability
Summary of the method: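 K562 cells in logarithmic growth were counted, diluted and plated in 96-well plates, with medium-only blanks and a separate T0 plate read by CTG the following day. After overnight incubation, graded compound concentrations were added for 72 h, with 0.5% DMSO wells as growth controls. Luminescence was read on a Biotek cytation3.0, and IC50 came from nonlinear fitting in GraphPad Prism 7.0.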

[2] = biological target: T1, Ba/F3 BCR-ABL1 WT (Homo sapiens, UniProt P00519+P11274); assay: Cell growth inhibitory activity assay (CellTiter-Glo), Ba/F3 BCR-ABL1 WT cells; details: 72 h, CTG cell viability
T1 construct: BCR (N-terminal fusion partner of the oncoprotein); expressed in transfected cells; host or cells: Ba/F3 (lentiviral transduction, monoclonal line)
Summary of the method: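 Ba/F3 lines stably transduced by lentivirus with WT or mutant BCR-ABL1, alongside untransduced parental Ba/F3, were seeded and incubated overnight at 37 °C, 5% CO2, then exposed to serially diluted compound for 72 h. Viability was read as ATP by CellTiter-Glo luminescence against a day-of-dosing T0 plate; IC50 from four-parameter nonlinear fit.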

[3] = biological target: T2, Ba/F3 BCR-ABL1 T315I (Homo sapiens, UniProt P00519+P11274, T315I); assay: Cell growth inhibitory activity assay (CellTiter-Glo), Ba/F3 BCR-ABL1 T315I cells; details: 72 h, CTG cell viability
T2 construct: BCR (N-terminal fusion partner of the oncoprotein); expressed in transfected cells; host or cells: Ba/F3 (lentiviral transduction, monoclonal line)
Summary of the method: (§1)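 IC50 values come from nonlinear fitting of % inhibition against log concentration, with viability taken as ATP content by CellTiter-Glo. Parental Ba/F3 or Ba/F3 monoclonal lines expressing lentivirally introduced mutant BCR-ABL1 were dosed for 72 h; controls included 0.5% DMSO wells and a T0 plate.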

[4] = system: Ba/F3 parental cells; assay: Cell growth inhibitory activity assay (CellTiter-Glo), Ba/F3 parental cells; details: Mus musculus, BaF3, 72 h, CTG cell viability, read-out: IC50 Ba/F3 BCR-ABL1 Parental
Summary of the method: as §1

SMILES | IC50 [1] | IC50 [2] | IC50 [3] | IC50 [4]
C[C@@H]1COCc2nc3cc(C(=O)Nc4ccc(OC(F)(F)Cl)cc4)cc(-c4cnc5c(c4)-c4nn(-c6nccc(-c7ccccc7F)n6)cc4C5)c3n21 [T-92, (R)-N-(4-(chlorodifluoromethoxy)phenyl)-6-(2-(4-(2-fluorophenyl)pyrimidin-2-yl)-2,4-dihydropyrazolo[3',4':3,4]cyclopenta[1,2-b]pyridin-7-yl)-4-methyl-3,4-dihydro-1H-benzo[4,5]imidazo[2,1-c][1,4]oxazine-8-carboxamide] | ≤ 5 nM | ≤ 5 nM | ≤ 5 nM | > 1000 nM
O=C(Nc1ccc(OC(F)(F)Cl)cc1)c1cnc(N2CC[C@@H](F)C2)c(-c2cnc3c(c2)-c2c(cnn2-c2ncc(F)cn2)C3)c1 [T-6-B, (R)-N-(4-(chlorodifluoromethoxy)phenyl)-5-(1-(5-fluoropyrimidin-2-yl)-1,4-dihydropyrazolo[3',4':3,4]cyclopenta[1,2-b]pyridin-7-yl)-6-(3-fluoropyrrolidin-1-yl)nicotinamide] | ≤ 5 nM | ≤ 5 nM | 5 to 50 nM | > 1000 nM
O=C(Nc1ccc(OC(F)(F)Cl)cc1)c1cnc(N2CC[C@@H](F)C2)c(-c2cnc3c(c2)-c2nn(-c4ncc(F)cn4)cc2C3F)c1 (stereo partly drawn) [T-130, N-(4-(chlorodifluoromethoxy)phenyl)-5-(4-fluoro-2-(5-fluoropyrimidin-2-yl)-2,4-dihydropyrazolo[3',4':3,4]cyclopenta[1,2-b]pyridin-7-yl)-6-((R)-3-fluoropyrrolidin-1-yl)nicotinamide] | ≤ 5 nM | ≤ 5 nM | ≤ 5 nM | > 1000 nM
C[C@@H]1CCSc2nc3cc(C(=O)Nc4ccc(OC(F)(F)Cl)cc4)cc(-c4cnccn4)c3n21 [T-116, (R)-N-(4-(chlorodifluoromethoxy)phenyl)-4-methyl-6-(pyrazin-2-yl)-3,4-dihydro-2H-benzo[4,5]imidazo[2,1-c][1,3]thiazine-8-carboxamide] | ≤ 5 nM | ≤ 5 nM | 5 to 50 nM | > 1000 nM
Cc1ccc(-n2ncc3c2-c2cc(-c4cc(C(=O)Nc5ccc(OC(F)(F)Cl)cc5)cc5nc6n(c45)[C@H](C)COC6)cnc2C3)nn1 [T-104-B, (R)-N-(4-(chlorodifluoromethoxy)phenyl)-4-methyl-6-(1-(6-methylpyridazin-3-yl)-1,4-dihydropyrazolo[3',4':3,4]cyclopenta[1,2-b]pyridin-7-yl)-3,4-dihydro-1H-benzo[4,5]imidazo[2,1-c][1,4]oxazine-8-carboxamide] | ≤ 5 nM | ≤ 5 nM | 5 to 50 nM | > 1000 nM
COc1ccc(-c2ccnc(-n3ncc4c3-c3cc(-c5cc(C(=O)Nc6ccc(OC(F)(F)Cl)cc6)cc6nc7n(c56)[C@H](C)COC7)cnc3C4)n2)cc1F [T-91-A, (R)-N-(4-(chlorodifluoromethoxy)phenyl)-6-(1-(4-(3-fluoro-4-methoxyphenyl)pyrimidin-2-yl)-1,4-dihydropyrazolo[3',4':3,4]cyclopenta[1,2-b]pyridin-7-yl)-4-methyl-3,4-dihydro-1H-benzo[4,5]imidazo[2,1-c][1,4]oxazine-8-carboxamide] | ≤ 5 nM | 5 to 50 nM | 50 to 1000 nM | > 1000 nM
O=C(Nc1ccc(OC(F)(F)Cl)cc1)c1cnc(N2CC[C@@H](F)C2)c(-c2cnc3c(c2)-c2nn(-c4nccc(-c5cncnc5)n4)cc2C3)c1 [T-22] | ≤ 5 nM | ≤ 5 nM | ≤ 5 nM | > 1000 nM
O=C(Nc1ccc(OC(F)(F)Cl)cc1)c1cnc(N2CC[C@@H](F)C2)c(-c2cnc3c(c2)-c2nn(-c4ncc(F)cn4)cc2C3)c1 [T-6-A, (R)-N-(4-(chlorodifluoromethoxy)phenyl)-5-(2-(5-fluoropyrimidin-2-yl)-2,4-dihydropyrazolo[3',4':3,4]cyclopenta[1,2-b]pyridin-7-yl)-6-(3-fluoropyrrolidin-1-yl)nicotinamide] | ≤ 5 nM | ≤ 5 nM | ≤ 5 nM | > 1000 nM
C[C@@H]1COCc2nc3cc(C(=O)Nc4ccc(OC(F)(F)Cl)cc4)cc(-c4ccc5c(c4)-c4nc(N)sc4C5)c3n21 [T-111, (R)-6-(2-amino-8H-indeno[1,2-d]thiazol-5-yl)-N-(4-(chlorodifluoromethoxy)phenyl)-4-methyl-3,4-dihydro-1H-benzo[4,5]imidazo[2,1-c][1,4]oxazine-8-carboxamide] | ≤ 5 nM | ≤ 5 nM | 5 to 50 nM | > 1000 nM
Cc1cc(C(F)(F)F)nc(-n2cc3c(n2)-c2cc(-c4cc(C(=O)Nc5ccc(OC(F)(F)Cl)cc5)cc5nc6n(c45)[C@H](C)COC6)cnc2C3)n1 [T-75, (R)-N-(4-(chlorodifluoromethoxy)phenyl)-4-methyl-6-(2-(4-methyl-6-(trifluoromethyl)pyrimidin-2-yl)-2,4-dihydropyrazolo[3',4':3,4]cyclopenta[1,2-b]pyridin-7-yl)-3,4-dihydro-1H-benzo[4,5]imidazo[2,1-c][1,4]oxazine-8-carboxamide] | ≤ 5 nM | ≤ 5 nM | ≤ 5 nM | > 1000 nM
N#Cc1cnc(-n2cc3c(n2)-c2cc(-c4cc(C(=O)Nc5ccc(OC(F)(F)Cl)cc5)c(N)nc4N4CC[C@@H](F)C4)cnc2C3)nc1 [T-134, (R)-2-amino-N-(4-(chlorodifluoromethoxy)phenyl)-5-(2-(5-cyanopyrimidin-2-yl)-2,4-dihydropyrazolo[3',4':3,4]cyclooenta[1,2-b]pyridin-7-yl)-6-(3-fluoropyrrolidin-1-yl)nicotinamide] | ≤ 5 nM | ≤ 5 nM | 50 to 1000 nM | 50 to 1000 nM
C[C@@H]1COCc2nc3cc(C(=O)Nc4ccc(OC(F)(F)Cl)cc4)cc(-c4cnc5c(c4)-c4c(cnn4CCOC(C)(C)C)C5)c3n21 [T-56-B, (R)-6-(1-(2-(tert-butoxy)ethyl)-1,4-dihydropyrazolo[3',4':3,4]cyclopenta[1,2-b]pyridin-7-yl)-N-(4-(chlorodifluoromethoxy)phenyl)-4-methyl-3,4-dihydro-1H-benzo[4,5]imidazo[2,1-c][1,4]oxazine-8-carboxamide] | ≤ 5 nM | ≤ 5 nM | > 1000 nM | > 1000 nM
C[C@@H]1COCc2nc3cc(C(=O)Nc4ccc(OC(F)(F)Cl)cc4)cc(-c4cnc5c(c4)-c4nn(-c6ncc7ccccc7n6)cc4C5)c3n21 [T-82-B, (R)-N-(4-(chlorodifluoromethoxy)phenyl)-4-methyl-6-(2-(quinazolin-2-yl)-2,4-dihydropyrazolo[3',4':3,4]cyclopenta[1,2-b]pyridin-7-yl)-3,4-dihydro-1H-benzo[4,5]imidazo[2,1-c][1,4]oxazine-8-carboxamide] | ≤ 5 nM | ≤ 5 nM | ≤ 5 nM | > 1000 nM
[2H]C([2H])([2H])n1cc2c(n1)-c1cc(-c3cc(C(=O)Nc4ccc(OC(F)(F)Cl)cc4)cc4nc5n(c34)[C@H](C)COC5)cnc1C2 [T-53, (R)-N-(4-(chlorodifluoromethoxv)phenyl)-4-methyl-6-(2-(methyl-d3)-2,4-dihydropyrazolo[3',4':3,4]cyclopenta[1,2-b]pyridin-7-yl)-3,4-dihydro-1H-benzo[4,5]imidazo[2,1-c][1,4]oxazine-8-carboxamide] | ≤ 5 nM | ≤ 5 nM | ≤ 5 nM | > 1000 nM
CCC(=O)n1cc2c(n1)-c1cc(-c3cc(C(=O)Nc4ccc(OC(F)(F)Cl)cc4)cc4nc5n(c34)[C@H](C)COC5)cnc1C2 [T-45, (R)-N-(4-(chlorodifluoromethoxy)phenyl)-4-methyl-6-(2-propionyl-2,4-dihydropyrazolo[3',4':3,4]cyclopenta[1,2-b]pyridin-7-yl)-3,4-dihydro-1H-benzo[4,5]imidazo[2,1-c][1,4]oxazine-8-carboxamide] | ≤ 5 nM | ≤ 5 nM | ≤ 5 nM | > 1000 nM
COc1cnc(-n2cc3c(n2)-c2cc(-c4cc(C(=O)Nc5ccc(OC(F)(F)Cl)cc5)cnc4N4CC[C@@H](F)C4)cnc2C3)nc1 [T-17, (R)-N-(4-(chlorodifluoromethoxy)phenyl)-6-(3-fluoropyrrolidin-1-yl)-5-(2-(5-methoxypyrimidin-2-yl)-2,4-dihydropyrazolo[3',4':3,4]cyclopenta[1,2-b]pyridin-7-yl)nicotinamide] | ≤ 5 nM | ≤ 5 nM | ≤ 5 nM | > 1000 nM
N#Cc1ccnc(-n2cc3c(n2)-c2cc(-c4cc(C(=O)Nc5ccc(OC(F)(F)Cl)cc5)cnc4N4CC[C@@H](F)C4)cnc2C3)n1 [T-129, (R)-N-(4-(chlorodifluoromethoxy)phenyl)-5-(2-(4-cyanopyrimidin-2-yl)-2,4-dihydropyrazolo[3',4':3,4]cyclopenta[1,2-b]pyridin-7-yl)-6-(3-fluoropyrrolidin-1-yl)nicotinamide] | ≤ 5 nM | ≤ 5 nM | ≤ 5 nM | > 1000 nM
O=C(Nc1ccc(OC(F)(F)Cl)cc1)c1cnc(N2CC[C@H](F)C2)c(-c2cnc3c(c2)-c2nn(-c4ncc(F)cn4)cc2C3)c1 [T-13, (S)-N-(4-(chlorodifluoromethoxy)phenyl)-5-(2-(5-fluoropyrimidin-2-yl)-2,4-dihydropyrazolo[3',4':3,4]cyclopenta[1,2-b]pyridin-7-yl)-6-(3-fluoropyrrolidin-1-yl)nicotinamide] | ≤ 5 nM | ≤ 5 nM | ≤ 5 nM | > 1000 nM
